Laboratory results from patent US10689367B2, “Triazole pyridyl compounds as agonists of the APJ receptor” (AMGEN INC., priority 2016, dated 2020).

The compounds below were run against human APJ receptor (Homo sapiens (Human), UniProt P35414) (assay: [35S]GTPγS binding assay on membranes from CHO cells stably expressing human APJ receptor). Conditions: membranes of CHO cells stably expressing human APJ receptor, read-out: Activity hAPJ SPA EC50 IP.
Assay type: biochemical
Method in brief: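 [35S]GTPγS binding measured on membranes from CHO cells stably expressing FLAG-tagged human APJ, with GDP, MgCl2 and NaCl levels optimized beforehand. Incubation 90 min at RT, imager read-out; EC50 from non-linear regression, averaged over several independent experiments.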

Sequence of human APJ receptor (P35414 whole entry): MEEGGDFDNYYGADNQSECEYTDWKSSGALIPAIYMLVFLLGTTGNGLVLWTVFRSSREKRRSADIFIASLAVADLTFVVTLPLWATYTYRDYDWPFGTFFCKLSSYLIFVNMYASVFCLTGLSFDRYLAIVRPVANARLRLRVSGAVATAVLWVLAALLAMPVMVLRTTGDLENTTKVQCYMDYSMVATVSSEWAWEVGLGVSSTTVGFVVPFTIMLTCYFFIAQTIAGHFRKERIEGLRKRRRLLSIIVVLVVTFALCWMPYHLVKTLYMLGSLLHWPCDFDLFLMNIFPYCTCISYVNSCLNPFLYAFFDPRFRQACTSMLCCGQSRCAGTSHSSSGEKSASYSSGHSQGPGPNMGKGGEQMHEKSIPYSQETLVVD

Compound	EC50
COc1cccc(-c2nnc(NS(=O)(=O)[C@@H](C)[C@H](OC)c3ncc(Cl)cn3)n2CC(OC)OC)n1 [Example 77.0]	135 nM
COc1cccc(-c2nnc(NS(=O)(=O)[C@@H](C)[C@@H](OC(C)C)c3ncc(Cl)cn3)n2C2CC2)n1 [Example 70.0]	0.6 nM
COc1cccc(-c2nnc(NS(=O)(=O)[C@@H](C)[C@@H](OC(C)C)c3ncc(C)cn3)n2[C@H](C)[C@@H]2CCCCO2)n1 (single isomer, unassigned) [Example 323.0]	0.66 nM
CC[C@H]([C@@H]1CCCCO1)n1c(NS(=O)(=O)[C@@H](C)[C@H](OC)c2ncc(C)cn2)nnc1-c1cncc(C)c1 (single isomer, unassigned) [Example 333.0]	7.7 nM
COCC1(n2c(NS(=O)(=O)[C@@H](C)[C@H](C)c3ncc(Cl)cn3)nnc2-c2cccnc2)CC1 [Example 68.0]	2.8 nM
COc1cccc(-c2nnc(NS(=O)(=O)[C@@H](C)[C@@H](OC(C)C)c3ncc(C)cn3)n2[C@@H](C)c2ncnn2C)n1 (single isomer, unassigned) [Example 253.0, (1S,2S)-N-(5-(6-methoxy-2-pyridinyl)-4-((1R)-1-(1-methyl-1H-1,2,4-triazol-5-yl)ethyl)-4H-1,2,4-triazol-3-yl)-1-(5-methyl-2-pyrimidinyl)-1-(2-propanyloxy)-2-propanesulfonamide or (1S,2S)-N-(5-(6-methoxy-2-pyridinyl)-4-((1S)-1-(1-methyl-1H-1,2,4-triazol-5-yl)ethyl)-4H-1,2,4-triazol-3-yl)-1-(5-methyl-2-pyrimidinyl)-1-(2-propanyloxy)-2-propanesulfonamide]	32 nM
COc1cccc(-c2nnc(NS(=O)(=O)[C@@H](C)[C@H](OC)c3ncc(Cl)cn3)n2[C@H](C)c2cccnc2)n1 (single isomer, unassigned) [Example 350.0, (1R,2S)-1-(5-chloropyrimidin-2-yl)-1-methoxy-N-(5-(6-methoxypyridin-2-yl)-4-((R)-1-(pyridin-3-yl)ethyl)-4H-1,2,4-triazol-3-yl)propane-2-sulfonamide or (1R,2S)-1-(5-chloropyrimidin-2-yl)-1-methoxy-N-(5-(6-methoxypyridin-2-yl)-4-((S)-1-(pyridin-3-yl)ethyl)-4H-1,2,4-triazol-3-yl)propane-2-sulfonamide]	7.84 nM
COCC(COC)n1c(NS(=O)(=O)[C@@H](C)[C@H](OC)c2ncc(Cl)cn2)nnc1-c1cccc(OC)n1 [Example 6.0, (1R,2S)-1-(5-chloro-2-pyrimidinyl)-1-methoxy-N-(4-(2-methoxy-1-(methoxymethyl)ethyl)-5-(6-methoxy-2-pyridinyl)-4H-1,2,4-triazol-3-yl)-2-propanesulfonamide]	0.3 nM
COc1cccc(-c2nnc(NS(=O)(=O)[C@@H](C)[C@@H](OC(C)C)c3ncc(C)cn3)n2[C@@H](C)[C@H]2CCCO2)n1 (single isomer, unassigned) [Example 276.0]	1.3 nM
COc1cccc(-c2nnc(NS(=O)(=O)[C@@H](C)[C@@H](OC(C)C)c3ncc(C)cn3)n2[C@H](C)[C@@H]2CCCCO2)n1 (single isomer, unassigned) [Example 324.0]	0.35 nM
COc1cccc(-c2nnc(NS(=O)(=O)[C@@H](C)[C@@H](OC(C)C)c3ncc(C)cn3)n2[C@@H](C)c2c(C)noc2C)n1 (racemic) [Example 316.0, (1S,2S)-N-(4-((R)-1-(3,5-dimethylisoxazol-4-yl)ethyl)-5-(6-methoxypyridin-2-yl)-4H-1,2,4-triazol-3-yl)-1-isopropoxy-1-(5-methylpyrimidin-2-yl)propane-2-sulfonamide or (1S,2S)-N-(4-((S)-1-(3,5-dimethylisoxazol-4-yl)ethyl)-5-(6-methoxypyridin-2-yl)-4H-1,2,4-triazol-3-yl)-1-isopropoxy-1-(5-methylpyrimidin-2-yl)propane-2-sulfonamide]	21 nM
COc1cccc(-c2nnc(NS(=O)(=O)[C@@H](C)[C@@H](OC(C)C)c3ncc(C)cn3)n2[C@@H](C)[C@H]2CCCO2)n1 (single isomer, unassigned) [Example 273.0]	23 nM
(1R,2S)-1-(5-Chloropyrimidin-2-yl)-1-methoxy-N-(4-((1R,2R)-2-methoxycyclobutyl)-5-(6-methoxypyridin-2-yl)-4H-1,2,4-triazol-3-yl)propane-2-sulfonamide and (1R,2S)-1-(5-chloropyrimidin-2-yl)-1-methoxy-N-(4-((1S,2S)-2-methoxycyclobutyl)-5-(6-methoxypyridin-2-yl)-4H-1,2,4-triazol-3-yl)propane-2-sulfonamide [Example 155.0]	3.1 nM
COc1cc(Cn2c(NS(=O)(=O)[C@@H](C)[C@H](OC)c3ncc(Cl)cn3)nnc2-c2cccc(OC)n2)on1 [Example 197.0, (1R,2S)-1-(5-chloro-2-pyrimidinyl)-1-methoxy-N-(4-((3-methoxy-1,2-oxazol-5-yl)methyl)-5-(6-methoxy-2-pyridinyl)-4H-1,2,4-triazol-3-yl)-2-propanesulfonamide]	12 nM
CO[C@H](c1ncc(Cl)cn1)[C@H](C)S(=O)(=O)Nc1nnc(-c2cccnc2)n1C(C)C [Example 134.0, (1R,2S)-1-(5-chloro-2-pyrimidinyl)-1-methoxy-N-(4-(2-propanyl)-5-(3-pyridinyl)-4H-1,2,4-triazol-3-yl)-2-propanesulfonamide]	170 nM
COCCn1c(NS(=O)(=O)[C@@H](C)[C@H](C)c2ncc(OC)cn2)nnc1-c1ccccn1 [Example 21.0, (2S,3R)-N-(4-(2-methoxyethyl)-5-(2-pyridinyl)-4H-1,2,4-triazol-3-yl)-3-(5-methoxy-2-pyrimidinyl)-2-butanesulfonamide]	430 nM
COc1cccc(-c2nnc(NS(=O)(=O)[C@@H](C)[C@H](C)c3ncc(Cl)cn3)n2[C@@H](C)c2ncnn2C)n1 (single isomer, unassigned) [Example 250.0]	370 nM
CC[C@H]([C@@H]1CCCCO1)n1c(NS(=O)(=O)[C@@H](C)[C@H](OC)c2ncc(C)cn2)nnc1-c1cccc(OC)n1 (single isomer, unassigned) [Example 331.0]	0.6 nM
COc1cccc(-c2nnc(NS(=O)(=O)[C@@H](C)[C@H](OC)c3ncc(Cl)cn3)n2CCOC(F)F)n1 [Example 43.0]	3.7 nM
COc1cccc(-c2nnc(NS(=O)(=O)[C@@H](C)[C@H](OC)c3ncc(Cl)cn3)n2[C@@H](C)c2ccon2)n1 (single isomer, unassigned) [Example 265.0, (1R,2S)-1-(5-chloro-2-pyrimidinyl)-1-methoxy-N-(5-(6-methoxy-2-pyridinyl)-4-((1R)-1-(1,2-oxazol-3-yl)ethyl)-4H-1,2,4-triazol-3-yl)-2-propanesulfonamide or (1R,2S)-1-(5-chloro-2-pyrimidinyl)-1-methoxy-N-(5-(6-methoxy-2-pyridinyl)-4-((1S)-1-(1,2-oxazol-3-yl)ethyl)-4H-1,2,4-triazol-3-yl)-2-propanesulfonamide]	0.92 nM
COc1cccc(-c2nnc(NS(=O)(=O)[C@@H](C)[C@H](C)c3ncc(Cl)cn3)n2[C@H](C)c2csnn2)n1 (single isomer, unassigned) [Example 296.0, (2S,3R)-N-(4-((R)-1-(1,2,3-thiadiazol-4-yl)ethyl)-5-(6-methoxypyridin-2-yl)-4H-1,2,4-triazol-3-yl)-3-(5-chloropyrimidin-2-yl)butane-2-sulfonamide or (2S,3R)-N-(4-((S)-1-(1,2,3-thiadiazol-4-yl)ethyl)-5-(6-methoxypyridin-2-yl)-4H-1,2,4-triazol-3-yl)-3-(5-chloropyrimidin-2-yl)butane-2-sulfonamide]	1.8 nM
COc1cccc(-c2nnc(NS(=O)(=O)[C@@H](C)[C@H](OC)c3ncc(Cl)cn3)n2Cc2cc(C(F)(F)F)no2)n1 [Example 205.0, (1R,2S)-1-(5-chloro-2-pyrimidinyl)-1-methoxy-N-(5-(6-methoxy-2-pyridinyl)-4-((3-(trifluoromethyl)-1,2-oxazol-5-yl)methyl)-4H-1,2,4-triazol-3-yl)-2-propanesulfonamide]	4.5 nM
COc1cccc(-c2nnc(NS(=O)(=O)[C@@H](C)[C@H](OC)c3ncc(Cl)cn3)n2[C@H](C)c2cncnc2)n1 (single isomer, unassigned) [Example 336.0, (1R,2S)-1-(5-chloropyrimidin-2-yl)-1-methoxy-N-(5-(6-methoxypyridin-2-yl)-4-((R)-1-(pyrimidin-5-yl)ethyl)-4H-1,2,4-triazol-3-yl)propane-2-sulfonamide or (1R,2S)-1-(5-chloropyrimidin-2-yl)-1-methoxy-N-(5-(6-methoxypyridin-2-yl)-4-((S)-1-(pyrimidin-5-yl)ethyl)-4H-1,2,4-triazol-3-yl)propane-2-sulfonamide]	15 nM
COc1cccc(-c2nnc(NS(=O)(=O)[C@@H](C)[C@H](C)c3ncc(C)cn3)n2C2CC2)n1 [Example 114.0]	54 nM
COc1cccc(-c2nnc(NS(=O)(=O)[C@@H](C)[C@H](OC)c3ncc(Cl)cn3)n2C2CCCCC2)n1 [Example 184.0, (1R,2S)-1-(5-chloro-2-pyrimidinyl)-N-(4-cyclohexyl-5-(6-methoxy-2-pyridinyl)-4H-1,2,4-triazol-3-yl)-1-methoxy-2-propanesulfonamide]	7.3 nM
COCC(COC)n1c(NS(=O)(=O)[C@@H](C)[C@@H](OC(C)C)c2ncc(F)cn2)nnc1-c1cccc(OC)n1 [Example 171.0, (1S,2S)-N-(4-(1,3-dimethoxy-2-propanyl)-5-(6-methoxy-2-pyridinyl)-4H-1,2,4-triazol-3-yl)-1-(5-fluoro-2-pyrimidinyl)-1-(2-propanyloxy)-2-propanesulfonamide]	0.37 nM
COc1cccc(-c2nnc(NS(=O)(=O)[C@@H](C)[C@H](OC)c3ncc(Cl)cn3)n2C(CO)CO)n1 [Example 5.0, (1R,2S)-1-(5-chloro-2-pyrimidinyl)-N-(4-(2-hydroxy-1-(hydroxymethyl)ethyl)-5-(6-methoxy-2-pyridinyl)-4H-1,2,4-triazol-3-yl)-1-methoxy-2-propanesulfonamide]	50 nM
